Experimental findings from patent US9963445B2, “Chemical compounds” (SYNGENTA PARTICIPATIONS AG, priority 2013, dated 2018) are described below.

Holding throughout (assay type): in vivo
Test [1] deals with zea mays. Briefly: Pre-emergence herbicidal activity, glasshouse pot test. To be noted: pre-emergence spray, rate 1000 g/ha, evaluated after 13 days, scale 0-5. Here is the method:
(§1) Seeds of a variety of test species were sown in standard soil in pots. After cultivation for one day (pre-emergence) under controlled conditions in a glasshouse (at 24/16° C., day/night; 14 hours light; 65% humidity), the plants were sprayed with an aqueous spray solution derived from the formulation of the technical active ingredient in acetone/water (50:50) solution containing 0.5% Tween 20 (polyoxyethelyene sorbitan monolaurate, CAS RN 9005-64-5). The test plants were then grown in a glasshouse under controlled conditions (at 24/16° C., day/night; 14 hours light; 65% humidity) and watered twice daily. After 13 days, the test was evaluated (5=total damage to plant; 0=no damage to plant).
(§2) ABUTH=Abutilon theophrasti; SOLNI=Solanum nigrum; AMARE=Amaranthus retroflexus; SETFA=Setaria faberi; ALOMY=Alopecurus myosuroides; ECHCG=Echinochloa crus-galli, ZEAMX=zea mays.

Test [2] concerns Setaria faberi. The description is as above. To be noted: pre-emergence spray, rate 1000 g/ha, evaluated after 13 days, scale 0-5. The procedure:
as §1, §2

The subject of test [3] is Echinochloa crus-galli. The description is as above. To be noted: pre-emergence spray, rate 1000 g/ha, evaluated after 13 days, scale 0-5. Here is the method: as §1, §2
Test [4] concerns Alopecurus myosuroides. The test is described as above. To be noted: pre-emergence spray, rate 1000 g/ha, evaluated after 13 days, scale 0-5. The procedure:
as §1, §2

Test [5] relates to Abutilon theophrasti. Described as above. Particulars: pre-emergence spray, rate 1000 g/ha, evaluated after 13 days, scale 0-5. The procedure: as §1, §2
In test [6] the test system is Amaranthus retroflexus. The test is described as above. To be noted: pre-emergence spray, rate 1000 g/ha, evaluated after 13 days, scale 0-5. Here is the method:
as §1, §2

Test [7] relates to zea mays. Briefly: Post-emergence herbicidal activity, glasshouse pot test. Further details: key: 0 = no damage to plant, 5 = total damage to plant. To be noted: Application post-emergence, rate 1000 g/ha, evaluated after 13 days. Here is the method:
(§3) Seeds of a variety of test species were sown in standard soil in pots. After 8 days cultivation (post-emergence) under controlled conditions in a glasshouse (at 24/16° C., day/night; 14 hours light; 65% humidity), the plants were sprayed with an aqueous spray solution derived from the formulation of the technical active ingredient in acetone/water (50:50) solution containing 0.5% Tween 20 (polyoxyethelyene sorbitan monolaurate, CAS RN 9005-64-5). The test plants were then grown in a glasshouse under controlled conditions (at 24/16° C., day/night; 14 hours light; 65% humidity) and watered twice daily. After 13 days, the test was evaluated (5=total damage to plant; 0=no damage to plant).
as §2

Test [8] has as its system Setaria faberi. Described as above. Further details: key: 0 = no damage to plant, 5 = total damage to plant. To be noted: Application post-emergence, rate 1000 g/ha, evaluated after 13 days. The procedure: as §3, §2
Test [9] relates to Echinochloa crus-galli. Described as above. Further details: key: 0 = no damage to plant, 5 = total damage to plant. To be noted: Application post-emergence, rate 1000 g/ha, evaluated after 13 days. Here is the method: as §3, §2
Test [10] deals with Alopecurus myosuroides. The test is described as above. Further details: key: 0 = no damage to plant, 5 = total damage to plant. Particulars: Application post-emergence, rate 1000 g/ha, evaluated after 13 days. Here is the method: as §3, §2
Test [11] has as its system Abutilon theophrasti. The description is as above. Further details: key: 0 = no damage to plant, 5 = total damage to plant. To be noted: Application post-emergence, rate 1000 g/ha, evaluated after 13 days. The procedure: as §3, §2
Test [12] deals with Amaranthus retroflexus. The description is as above. To be noted: Application post-emergence, rate 1000 g/ha, evaluated after 13 days. Further details: key: 0 = no damage to plant, 5 = total damage to plant. The procedure:
as §3, §2

As for `CC1=C(Cl)C(=O)N(c2cc([S+](C)[O-])ccn2)C1O` (stereo not drawn) [AF51], in [1], the “ZEAMX damage score, application pre-emergence” value (shortened to “ZEAMX damage score”) is given as 0. The “SETFA damage score, application pre-emergence” value (from here on “SETFA damage score”) in [2] is 0. Also, the “ECHCG damage score, application pre-emergence” value (“ECHCG damage score” for short) in test [3] was 0. Moreover, the “ALOMY damage score, application pre-emergence” value (“ALOMY damage score” for short) in test [4] is 0. For the same compound, the “ABUTH damage score, application pre-emergence” value (“ABUTH damage score” for short) in test [5] is 0. Moreover, the “AMARE damage score, application pre-emergence” value (“AMARE damage score” for short) in [6] was 0. Besides, in test [7], the “ZEAMX herbicidal damage score” value was 0. Moreover, in [8], the “SETFA herbicidal damage score” value was 3. For the same compound, the “ECHCG herbicidal damage score” value in [9] is recorded as 3. Further, in test [10], the “ALOMY herbicidal damage score” value is recorded as 3. In test [11], the “ABUTH herbicidal damage score” value amounted to 4. For the same compound, in [12], the “AMARE herbicidal damage score” value is on record as 0.
Consider `CC1=C(Br)C(=O)N(c2cc(C(C)(C)C#N)ncn2)C1O` (stereo not drawn) [CG3], for which the “ZEAMX damage score” value in test [1] came out at 3. In addition, the “SETFA damage score” value in test [2] came out at 5. For the same compound, the “ECHCG damage score” value in test [3] was found to be 4. Further, the “ALOMY damage score” value in [4] is on record as 4. The “ABUTH damage score” value in [5] amounted to 4. The “AMARE damage score” value in [6] worked out at 5. Besides, the “ZEAMX herbicidal damage score” value in test [7] is given as 3. For the same compound, in [8], the “SETFA herbicidal damage score” value is 5. For the same compound, the “ECHCG herbicidal damage score” value in test [9] worked out at 5. Besides, in [10], the “ALOMY herbicidal damage score” value is listed as 5. For the same compound, the “ABUTH herbicidal damage score” value in [11] turned out to be 5. Moreover, the “AMARE herbicidal damage score” value in test [12] was 5.
As for “6-(4-chloro-2-hydroxy-3-methyl-5-oxo-2H-pyrrol-1-yl)-4-(trifluoromethyl)pyridine-3-carbonitrile [AF3]”, in test [1], the “ZEAMX damage score” value turned out to be 2. For the same compound, in test [2], the “SETFA damage score” value is recorded as 4. Also, in [3], the “ECHCG damage score” value was 4. Further, the “ALOMY damage score” value in test [4] was 3. For the same compound, the “ABUTH damage score” value in [5] was 0. Moreover, the “AMARE damage score” value in [6] is 2. For the same compound, the “ZEAMX herbicidal damage score” value in [7] worked out at 4. Besides, the “SETFA herbicidal damage score” value in test [8] is given as 5. Moreover, the “ECHCG herbicidal damage score” value in test [9] was determined as 5. Further, in test [10], the “ALOMY herbicidal damage score” value worked out at 5. The “ABUTH herbicidal damage score” value in test [11] is recorded as 5. Moreover, in test [12], the “AMARE herbicidal damage score” value turned out to be 5.
In the case of `CCOC(=O)c1cnc(N2C(=O)C(Cl)=C(C)C2O)cc1Cl` (stereo not drawn) [AF101], the “ZEAMX damage score” value in test [1] is listed as 0. In addition, the “SETFA damage score” value in [2] turned out to be 0. Besides, the “ECHCG damage score” value in test [3] stood at 0. In addition, the “ALOMY damage score” value in test [4] is on record as 0. For the same compound, the “ABUTH damage score” value in test [5] is 1. The “AMARE damage score” value in test [6] is recorded as 2. Moreover, the “ZEAMX herbicidal damage score” value in test [7] was determined as 1. For the same compound, in test [8], the “SETFA herbicidal damage score” value was determined as 5. The “ECHCG herbicidal damage score” value in test [9] came out at 3. In addition, in [10], the “ALOMY herbicidal damage score” value is 2. In addition, the “ABUTH herbicidal damage score” value in test [11] is 5. Further, the “AMARE herbicidal damage score” value in test [12] was found to be 5.
As to `COC1=C(OC)C(O)N(c2cc(Br)ccn2)C1=O` (stereo not drawn) [AK5], in test [1], the “ZEAMX damage score” value came to 0. In test [2], the “SETFA damage score” value was 1. Besides, the “ECHCG damage score” value in test [3] was 4. For the same compound, in [4], the “ALOMY damage score” value is reported as 1. Also, the “ABUTH damage score” value in test [5] is 0. Also, in test [6], the “AMARE damage score” value turned out to be 1. Also, the “ZEAMX herbicidal damage score” value in test [7] stood at 0. The “SETFA herbicidal damage score” value in [8] is listed as 5. Further, the “ECHCG herbicidal damage score” value in test [9] was found to be 5. Also, in [10], the “ALOMY herbicidal damage score” value worked out at 5. The “ABUTH herbicidal damage score” value in test [11] is 5. In addition, the “AMARE herbicidal damage score” value in [12] is on record as 5.
